Measurements published in patent US10336707B2, “Heterocyclic derivatives modulating activity of certain protein kinases” (EUDENDRON S.R.L., priority 2014, dated 2019).
pIC50: −log10 of the molar value.

Biological target: T1, EPHB2 (Homo sapiens, UniProt P29323)
T1 construct: either as full-length or enzymatically active fragments; purchased ProQinase GmbH (Freiburg, Germany)
T1 sequence (P29323 19-1055): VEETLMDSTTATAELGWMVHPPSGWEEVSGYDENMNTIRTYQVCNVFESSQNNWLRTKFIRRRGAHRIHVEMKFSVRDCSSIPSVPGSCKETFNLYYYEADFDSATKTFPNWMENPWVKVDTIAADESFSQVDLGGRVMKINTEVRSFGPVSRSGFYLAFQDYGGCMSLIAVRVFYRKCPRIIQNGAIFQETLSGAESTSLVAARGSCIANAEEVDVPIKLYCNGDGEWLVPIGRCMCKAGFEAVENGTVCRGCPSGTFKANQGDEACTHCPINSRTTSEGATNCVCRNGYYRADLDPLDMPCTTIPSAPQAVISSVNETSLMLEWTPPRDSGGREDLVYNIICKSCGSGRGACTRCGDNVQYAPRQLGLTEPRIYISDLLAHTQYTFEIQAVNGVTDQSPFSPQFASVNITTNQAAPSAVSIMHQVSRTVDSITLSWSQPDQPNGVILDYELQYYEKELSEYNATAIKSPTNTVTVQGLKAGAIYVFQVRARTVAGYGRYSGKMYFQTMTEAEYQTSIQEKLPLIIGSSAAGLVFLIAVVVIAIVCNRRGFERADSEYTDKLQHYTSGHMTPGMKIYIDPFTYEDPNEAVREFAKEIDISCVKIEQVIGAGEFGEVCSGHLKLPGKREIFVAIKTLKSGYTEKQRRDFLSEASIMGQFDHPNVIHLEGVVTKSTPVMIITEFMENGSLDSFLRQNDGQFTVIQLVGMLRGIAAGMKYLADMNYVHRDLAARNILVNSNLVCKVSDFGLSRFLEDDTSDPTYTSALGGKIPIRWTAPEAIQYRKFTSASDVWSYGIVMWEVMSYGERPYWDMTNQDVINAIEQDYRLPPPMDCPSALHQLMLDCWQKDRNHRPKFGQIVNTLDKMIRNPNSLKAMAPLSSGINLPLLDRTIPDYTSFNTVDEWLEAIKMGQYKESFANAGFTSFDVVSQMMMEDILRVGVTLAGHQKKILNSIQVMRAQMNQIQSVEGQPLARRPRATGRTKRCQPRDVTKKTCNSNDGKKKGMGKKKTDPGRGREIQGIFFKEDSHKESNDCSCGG
Assay: Radiometric protein kinase assay (33PanQuinase Activity Assay), EPHB2
Type: biochemical
Settings: ATP 0.3 μM
Experimental: A proprietary radiometric protein kinase assay (33PanQuinase® Activity Assay) developed by ProQuinase GmbH (Freiburg, Germany) was used for measuring the kinase activity of selected protein kinases. All assays were performed in FlashPlates™ wells 96 Perkin Elmer (Boston, Mass., USA) in a reaction volume of 50 μl. The reaction mixture was obtained in 4 steps in the following order: • 1. 10 μl of a solution of non-radioactive ATP in water; • 2. 25 μl of assay buffer/[γ-^33P]-ATP mixture • 3. 5 μl of test sample in 10% DMSO • 4. 10 μl of enzyme/substrate mixture
All protein kinases provided by ProQinase were expressed in Sf9 insect cells or in E. coli as recombinant GST-fusion proteins or His-tagged proteins, either as full-length or enzymatically active fragments. […] Kinases from external vendors (CAR=Carna Biosciences Inc.; INV=Life Technologies (Invitrogen Corporation); MIL=Merck-Millipore (Millipore Corporation), were expressed, purified and quality-controlled by virtue of the vendors readings.
A stock solution of compound of formula (I) was diluted to 5×10-04M/100% DMSO. […] Incorporation of 33Pi (counting of “cpm”) was determined with a microplate scintillation counter (Microbeta, Wallac). […]
Based on each 10 corresponding residual activities, IC50 values were calculated using Prism 5.04 for Windows (Graphpad, San Diego, Calif.). […]

## CN1CCN(c2ccc(C(=O)Nc3n[nH]c4cc(-c5ccc(O)cc5)c(Cc5cc(F)cc(F)c5)cc34)c(NC3CCOCC3)c2)CC1 [Example 3, N-[5-[(3,5-difluorophenyl)methyl]-6-(4-hydroxyphenyl)-1H-indazol-3-yl]-4-(4-methylpiperazin-1-yl)-2-(tetrahydropyran-4-ylamino)benzamide]
  pIC50: 7.05
